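In this assay, cells in 96-well plates receive the compound at five concentrations for 48 hours. Endpoints are linearly interpolated between the surrounding concentrations. At the GI50, growth is halved. TGI is the concentration that stops growth completely.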
Key:
Test in all cases: growth of human tumour cells (NCI), 48 h
BT-549 breast = system: BT-549 breast
DU-145 prostate = system: DU-145 prostate
CCRF-CEM leukemia = system: CCRF-CEM leukemia
T-47D breast = system: T-47D breast
MDA-MB-435 = system: MDA-MB-435
UACC-62 melanoma = system: UACC-62 melanoma
RPMI-8226 leukemia = system: RPMI-8226 leukemia
EKVX NSCLC = system: EKVX NSCLC
UO-31 renal = system: UO-31 renal
NCI-H522 lung = system: NCI-H522 lung
OVCAR-3 ovarian = system: OVCAR-3 ovarian
TK-10 renal = system: TK-10 renal
K-562 leukemia = system: K-562 leukemia
MDA-MB-231 breast = system: MDA-MB-231 breast
SW-620 colon = system: SW-620 colon
HT29 colon = system: HT29 colon
OVCAR-8 ovarian = system: OVCAR-8 ovarian
SK-MEL-28 melanoma = system: SK-MEL-28 melanoma
HCT-116 colon = system: HCT-116 colon
MALME-3M melanoma = system: MALME-3M melanoma
HL-60(TB) leukemia = system: HL-60(TB) leukemia
UACC-257 melanoma = system: UACC-257 melanoma
COLO 205 colon = system: COLO 205 colon
HCC-2998 colon = system: HCC-2998 colon
SK-OV-3 ovarian = system: SK-OV-3 ovarian
PC-3 prostate = system: PC-3 prostate
SF-268 CNS = system: SF-268 CNS
SNB-19 CNS = system: SNB-19 CNS
M14 melanoma = system: M14 melanoma
U251 CNS = system: U251 CNS
NCI-H23 lung = system: NCI-H23 lung
MDA-MB-468 breast = system: MDA-MB-468 breast
NCI-H226 lung = system: NCI-H226 lung
KM12 colon = system: KM12 colon
OVCAR-4 ovarian = system: OVCAR-4 ovarian
786-0 renal = system: 786-0 renal
MCF7 breast = system: MCF7 breast
SF-539 CNS = system: SF-539 CNS
A549 NSCLC = system: A549 NSCLC
NCI/ADR-RES ovarian = system: NCI/ADR-RES ovarian
CAKI-1 renal = system: CAKI-1 renal
NCI-H460 lung = system: NCI-H460 lung
HOP-62 NSCLC = system: HOP-62 NSCLC
LOX IMVI melanoma = system: LOX IMVI melanoma
SK-MEL-2 melanoma = system: SK-MEL-2 melanoma
SF-295 CNS = system: SF-295 CNS
SK-MEL-5 melanoma = system: SK-MEL-5 melanoma
OVCAR-5 ovarian = system: OVCAR-5 ovarian
SNB-75 CNS = system: SNB-75 CNS
SN12C renal = system: SN12C renal
HS 578T breast = system: HS 578T breast
A498 renal = system: A498 renal
HOP-92 NSCLC = system: HOP-92 NSCLC
HCT-15 colon = system: HCT-15 colon
RXF 393 renal = system: RXF 393 renal
SR leukemia = system: SR leukemia
IGROV1 ovarian = system: IGROV1 ovarian
ACHN renal = system: ACHN renal

`CC/C(=C(/c1ccc(O)cc1)c1ccc(OCCN(C)C(=O)COCCOCCNC(=O)Cc2ccc3c(c2)CN([C@@H]2CCC(=O)NC2=O)C3=O)cc1)c1ccccc1` was tested, and the GI50 (BT-549 breast) was 0.0554 µM, the TGI (BT-549 breast) was 0.509 µM and the GI50 (DU-145 prostate) was > 53 µM. For the same compound, the TGI (DU-145 prostate) was > 100 µM, the GI50 (CCRF-CEM leukemia) was 0.132 µM and the TGI (CCRF-CEM leukemia) was > 100 µM. For the same compound, the GI50 (T-47D breast) was < 0.0166 µM, the TGI (T-47D breast) was 1.48 µM and the GI50 (MDA-MB-435) was 15.7 µM. The TGI (MDA-MB-435) was > 50.7 µM, the GI50 (UACC-62 melanoma) was > 31.3 µM and the TGI (UACC-62 melanoma) was > 54.1 µM. For the same compound, the GI50 (RPMI-8226 leukemia) was 3.35 µM, the TGI (RPMI-8226 leukemia) was > 32.3 µM and the TGI (EKVX NSCLC) was > 100 µM. The GI50 (UO-31 renal) was > 100 µM, the TGI (UO-31 renal) was > 100 µM and the GI50 (NCI-H522 lung) was > 33.1 µM. For the same compound, the TGI (NCI-H522 lung) was > 53.1 µM, the GI50 (OVCAR-3 ovarian) was 10.3 µM and the TGI (OVCAR-3 ovarian) was > 53 µM. The GI50 (TK-10 renal) was > 100 µM, the TGI (TK-10 renal) was > 100 µM and the GI50 (K-562 leukemia) was 7.91 µM. For the same compound, the TGI (K-562 leukemia) was > 100 µM, the GI50 (MDA-MB-231 breast) was 0.0438 µM and the TGI (MDA-MB-231 breast) was 0.173 µM. The GI50 (SW-620 colon) was 0.49 µM, the TGI (SW-620 colon) was > 40.1 µM and the GI50 (HT29 colon) was > 29.8 µM. The TGI (HT29 colon) was > 100 µM, the GI50 (OVCAR-8 ovarian) was 0.939 µM and the TGI (OVCAR-8 ovarian) was > 100 µM. The GI50 (SK-MEL-28 melanoma) was 6.19 µM, the TGI (SK-MEL-28 melanoma) was > 44 µM and the GI50 (HCT-116 colon) was > 46.9 µM. For the same compound, the TGI (HCT-116 colon) was > 84 µM, the GI50 (MALME-3M melanoma) was 0.112 µM and the TGI (MALME-3M melanoma) was 1.01 µM. The GI50 (HL-60(TB) leukemia) was < 0.0208 µM, the GI50 (UACC-257 melanoma) was > 44.7 µM and the TGI (UACC-257 melanoma) was > 76 µM. The GI50 (COLO 205 colon) was 0.702 µM, the TGI (COLO 205 colon) was 8.99 µM and the GI50 (HCC-2998 colon) was 2.16 µM. For the same compound, the TGI (HCC-2998 colon) was > 35.3 µM, the GI50 (SK-OV-3 ovarian) was 3.57 µM and the TGI (SK-OV-3 ovarian) was > 100 µM. The GI50 (PC-3 prostate) was 0.407 µM, the TGI (PC-3 prostate) was > 100 µM and the GI50 (SF-268 CNS) was 3 µM. The TGI (SF-268 CNS) was > 100 µM, the GI50 (SNB-19 CNS) was 1.11 µM and the TGI (SNB-19 CNS) was > 87 µM. The GI50 (M14 melanoma) was 7.95 µM, the TGI (M14 melanoma) was > 100 µM and the GI50 (U251 CNS) was > 35.3 µM. For the same compound, the TGI (U251 CNS) was > 74.7 µM, the GI50 (NCI-H23 lung) was > 40.6 µM and the TGI (NCI-H23 lung) was > 68.9 µM. For the same compound, the GI50 (MDA-MB-468 breast) was < 0.0167 µM, the TGI (MDA-MB-468 breast) was 0.214 µM and the GI50 (NCI-H226 lung) was 1.68 µM. For the same compound, the TGI (NCI-H226 lung) was > 44.4 µM, the GI50 (KM12 colon) was 2.98 µM and the TGI (KM12 colon) was > 47.3 µM. For the same compound, the GI50 (OVCAR-4 ovarian) was 13.6 µM, the TGI (OVCAR-4 ovarian) was > 100 µM and the GI50 (786-0 renal) was 25.6 µM. The TGI (786-0 renal) was > 100 µM, the GI50 (MCF7 breast) was < 0.0192 µM and the TGI (MCF7 breast) was > 40 µM. For the same compound, the GI50 (SF-539 CNS) was > 32.6 µM, the TGI (SF-539 CNS) was > 49.2 µM and the GI50 (A549 NSCLC) was > 34.7 µM. The TGI (A549 NSCLC) was > 100 µM, the GI50 (NCI/ADR-RES ovarian) was > 100 µM and the TGI (NCI/ADR-RES ovarian) was > 100 µM. For the same compound, the GI50 (CAKI-1 renal) was > 26.8 µM, the TGI (CAKI-1 renal) was > 100 µM and the GI50 (NCI-H460 lung) was > 56.7 µM. For the same compound, the TGI (NCI-H460 lung) was > 100 µM, the GI50 (HOP-62 NSCLC) was 1.12 µM and the TGI (HOP-62 NSCLC) was 10.1 µM. The GI50 (LOX IMVI melanoma) was > 37.1 µM, the TGI (LOX IMVI melanoma) was > 59.9 µM and the GI50 (SK-MEL-2 melanoma) was 1.14 µM. For the same compound, the TGI (SK-MEL-2 melanoma) was 9.32 µM, the GI50 (SF-295 CNS) was > 31.3 µM and the TGI (SF-295 CNS) was > 100 µM. The GI50 (SK-MEL-5 melanoma) was 7.88 µM, the TGI (SK-MEL-5 melanoma) was > 28.2 µM and the GI50 (OVCAR-5 ovarian) was 13 µM. For the same compound, the TGI (OVCAR-5 ovarian) was > 100 µM, the GI50 (SNB-75 CNS) was 0.0486 µM and the TGI (SNB-75 CNS) was 13.9 µM. For the same compound, the GI50 (SN12C renal) was 1.01 µM, the TGI (SN12C renal) was > 43 µM and the GI50 (HS 578T breast) was 0.427 µM. The TGI (HS 578T breast) was > 25.2 µM, the GI50 (A498 renal) was > 100 µM and the TGI (A498 renal) was > 100 µM. The GI50 (HOP-92 NSCLC) was 0.0677 µM, the TGI (HOP-92 NSCLC) was 1.8 µM and the GI50 (HCT-15 colon) was > 28 µM. The TGI (HCT-15 colon) was > 100 µM, the GI50 (RXF 393 renal) was 3.25 µM and the TGI (RXF 393 renal) was > 30.7 µM. For the same compound, the GI50 (SR leukemia) was 10 µM, the TGI (SR leukemia) was > 44.9 µM and the GI50 (IGROV1 ovarian) was 0.166 µM. For the same compound, the TGI (IGROV1 ovarian) was > 24.8 µM, the GI50 (ACHN renal) was > 100 µM and the TGI (ACHN renal) was > 100 µM.
`CCC(CC)n1cnc2c(-c3cnc(N)cn3)nc(N3CC4CCC(C3)O4)nc21` showed a GI50 (MDA-MB-468 breast) of 0.189 µM and a TGI (MDA-MB-468 breast) of 2.81 µM.
In the case of `COC(=O)/C=C1/SC(=Nc2cccc(Cl)c2)N(CCc2c[nH]c3ccc(O)cc23)C1=O`, the GI50 (MDA-MB-468 breast) is reported as 1.99 µM and the TGI (MDA-MB-468 breast) is reported as 4.4 µM.
`COc1ccc(-c2ncnc3c2ncn3CC#CCCl)cc1` showed a GI50 (MDA-MB-468 breast) of 2.37 µM and a TGI (MDA-MB-468 breast) of 7.29 µM.
Compound `Cc1cc2c(F)c(Oc3ncnc(Nc4ccc(N5C[C@@H](C)N[C@@H](C)C5)cc4)c3C#N)cc(F)c2[nH]1` has a GI50 (MDA-MB-468 breast) of 2.05 µM and a TGI (MDA-MB-468 breast) of 4.75 µM.
Work on `CC1COc2c(N3CCN(C)CC3)c(F)cc3c(=O)c(C(=O)N/N=C/c4cc[nH]c4)cn1c23` (stereo not drawn) yielded a GI50 (MDA-MB-468 breast) of 0.412 µM and a TGI (MDA-MB-468 breast) of 1.73 µM.
For `CCOC(=O)C(=Cc1ccc(C#N)cc1)C(=O)OCC`, the GI50 (MDA-MB-468 breast) was 1.98 µM and the TGI (MDA-MB-468 breast) was 3.84 µM.
For `CC1(C)N=C(N)N=C(N)N1c1ccc(CNC(=O)Nc2ccc(S(=O)(=O)F)c(Cl)c2)c(Cl)c1`, the GI50 (MDA-MB-468 breast) was 0.689 µM and the TGI (MDA-MB-468 breast) was > 100 µM.

— PubChem BioAssay (NCI)
